According to patent US10799464B2, “Delivery systems” (Textile-Based Delivery, Inc., priority 2014, dated 2020):
One block for each compound: values may come before it.

What was measured:
[1] = Use testing of allantoin-loaded yarn; type: in vivo; details: 25% in RTV imbibed into 40 Denier texturized nylon yarn
Source text: Allantoin, which is frequently used as an active in skin creams, was dispersed in RTV at 25%, and this matrix imbibed into a 40 Denier texturized nylon yarn. Some of this was plied with a 40 Denier nylon yarn. Another portion was air-covered with a spandex yarn.

[2] = Franz cell transdermal delivery test
Experimental: This was then tested in a Franz cell apparatus (Zyleris Pharmatech) for its ability to deliver the active (arecoline) transdermally.
The test article, in this case the aforementioned arecoline-loaded fabric, was placed atop a small piece of freshly excised skin, in this case from a pig's ear; below the skin was a reservoir containing bovine serum albumin buffer to simulate blood plasma. In order to reach the reservoir, the active had to diffuse transdermally across the layer of skin. Three such Franz cells were used so that the experiment was done in triplicate. A small aliquot was drawn from each reservoir at the 24-hour point and tested for arecoline as now described.
A reference arecoline solution was prepared by dissolving approximately 3 milligrams arecoline hydrobromide (ScienceLab.com) in approximately 0.5 milliliters of bovine serum albumin buffer, for an approximate concentration of about 6 milligrams/milliliter. The reference solution was spotted alongside all three samples (labelled R7, R8 and R9) on a TLC plate at the origin. After driving out the water from the spots with heat, the spotted TLC plate was allowed to cool, then developed in 100% methanol inside a developing tank. […]

[3] = typical topical cream, depending on the severity of pain; cited from earlier work
[4] = Release test on fabric swatches after washing or dyeing (retention of active), absorbance at 280 nm; type: physicochemical
Experimental: This Example provides exemplary release tests on fabrics from yarns of the disclosure. These release measurements were performed on small swatches of fabric produced from yarn of the disclosure, and washed or otherwise stressed before release testing. Release was used to quantify how much active is retained intact after the stress. No coating was necessary for this test. Retention of active through stresses such as washes and scouring is a key distinguishing benefit of yarns of this disclosure and enables medicated fabrics that can be applied in a wide range of applications that demand washability in order to be commercially viable.
(§1) Aspirin (acetylsalicylic acid) was ground to a fine powder and dispersed at 25% wt/wt in Novagard 200-260. This was imbibed into a texturized 70 Denier nylon yarn, then plied with a textured 70 Denier nylon yarn. The yarn was then knitted into several sleeves.
Washing with hot detergent water was then done once (on swatch #2), 5 times (swatch #3), or 10 times (swatch #4). Swatch #1 was the control with zero washings. Each swatch, a fixed 1-inch square, was placed in water for release, and after two days the absorbance measured at 280 nanometers.
Another sleeve was dyed using a standard dyeing process, which included scouring at the upper limit of the normal range of temperatures in dyeing, namely 220° F. for 45 minutes. […] Over 50% potency was retained through this intense process.

[5] = Informal wear test of aspirin sleeve; type: in vivo; details: sleeve worn on the elbow or knee
Source text: as §1

SMILES: NC(=O)NC1NC(=O)NC1=O (stereo not drawn) [Allantoin]
skin effect (in words) [1]: skin-soothing, softening effect

SMILES: COC(=O)C1=CCCN(C)C1 [arecoline]
concentration of arecoline in the reservoirs ([2]; 24-hour point, uncoated fabric of polyester yarn imbibed with 10% arecoline hydrobromide in Novagard 200-260, TLC spot intensity vs reference): ~5 milligrams/milliliters | transdermal delivery (in words) ([2]; pig ear skin Franz cell model, imbibed yarn): effective

SMILES: COc1cc(CNC(=O)CCCC/C=C/C(C)C)ccc1O [capsaicin]
effective daily dose for relief in the foot, ankle, and calf [3]: 0.5 to 6 mg

Absorbance (at 280 nm) ([4]; 1 wash with hot detergent water, 1-inch square swatch in water, two days): 0.077 | Absorbance (at 280 nm) ([4]; 5 washes with hot detergent water, 1-inch square swatch in water, two days): 0.038 | Absorbance (at 280 nm) ([4]; 10 washes with hot detergent water, 1-inch square swatch in water, two days): 0.045 | Absorbance (at 280 nm) ([4]; Control (0 washes), 1-inch square swatch in water, two days): 0.097 | Absorbance (at 280 nm) ([4]; Dyed (scouring at 220° F. for 45 minutes)): 0.051 | retention of the active ([4]; after 10 washings): about 45% | potency retained ([4]; after standard dyeing process, scouring 220° F. for 45 minutes): Over 50%
SMILES: CC(=O)Oc1ccccc1C(=O)O [Aspirin, acetylsalicylic acid]
analgesia (in words) [5]: significant analgesia
